Measured values taken from paper PMC6385087, “New Multitarget Hybrids Bearing Tacrine and Phenylbenzothiazole Motifs as Potential Drug Candidates for Alzheimer’s Disease” (Molecules, 2019).
pIC50: −log10 of the molar value. Where two headings read alike, the source gives them in different places.

Tests used:
[1] = molecular target: T1, AChE from electric eel (Electrophorus electricus, UniProt O42275); assay: biochemical; settings: means of two experiments, read-out: Inhibition of AChE (IC50)
T1 construct: commercially available enzyme AChE 500 U (extracted from electrophorus electricus); purchased type VI-S; host or cells: extracted from electric eel
Description: The analytical grade reagents were purchased from Sigma-Aldrich (St. Louis, MO, USA) and Acros (Thermo Fisher Scientific, Geel, Belgium) and were used without any further purification. The organic solvents were dried and distilled according to standard methods described in literature. […] The Proton and Carbon-13 NMR were recorded either on Bruker AVANCE III-300 (300 MHz and 75.5 MHz) or Bruker AVANCE III-400 (400 MHz and 100.5 MHz) NMR spectrometers (Billerica, MA, USA) at 25 °C using peaks of solvents as internal standard. The chemical shift values of protons or carbons were measured on a δ scale and the coupling constant values (J) were determined in Hertz. In the NMR representation, abbreviations are mentioned as: singlet represented by s, doublet represented by d, triplet represented by t, multiplet represented by m, double doublet represented by dd, and broad singlet represented by brs. The Leica Galen III hot stage apparatus (Leica Microsystems, Wetzlar, Germany) was used for measuring the melting points of compounds. […] The AChE inhibitory activity was measured in a 1 cm path length quartz cell through a Perkin Elmer Lambda 35 spectrophotometer equipped with a temperature programmer PTP1+1 Peltier System (T = 25.0 ± 0.1 °C) (Waltham, MA, USA). Electrospray ionization-mass (ESI-MS) measurements were carried out on a LCQ Fleet mass spectrometer (Thermo Scientific, S. Jose, CA, USA) operated in the ESI positive and negative ion modes.
Modified Ellman’s method was used as described previously for the determination of AChE activity. The AChE stock solution was prepared by dissolving commercially available enzyme AChE 500 U (extracted from electrophorus electricus) in 10 mL of TRIS buffer (50 mM, pH 8). HEPES buffer was used for the dilution of the enzyme to give the final AChE concentration. The assay solution consisted of 374 μL of 4-(2-hydroxyethyl)-1-piperazineethanesulfonic acid (Hepes) buffer (50 mM, pH 8.0), 476 μL of 3 mM bis(3-carboxy-4-nitrophenyl)disulfide (DTNB), 25 μL of AChE (type VI-S, from electric eel) stock solution, a variable volume (10–50 μL) of the compound’s stock solution (1 mg/mL of MeOH), and the necessary amount of methanol to attain the same volume of sample mixture (0.925 mL) in a 1 mL cuvette. Samples were left to react for 15 min and then the reaction was monitored at wavelength of 405 nm for 5 min, after adding 75 μL of 16 mM acetylthiocholine iodide (AChI) solution. Assays were run with a blank containing all the components except AChE, which was replaced by HEPES buffer. The velocities of the reaction were calculated as well as the enzyme activity. A control reaction was carried out using the sample solvent (methanol) in the absence of any tested compound, and it was considered as 100% activity. […] The inhibition curves were obtained by plotting the percentage of enzymatic inhibition versus inhibitor concentration and a calibration curve was obtained from which the linear regression parameters were calculated.

[2] = molecular target: T2, Aβ1–42 self-aggregation (Homo sapiens, UniProt P05067); assay: Aβ1–42 self-aggregation inhibition, thioflavin T fluorescence assay; type: biochemical; settings: for inhibition at 40 µM: read-out: Inhibition of Aβ-self-aggregation (%)
T2 construct: Commercially available Aβ1-42 peptide was obtained from Aldrich; purchased Aldrich
Description: […]. Since the compounds of this series presented some solubility problems in methanol, the assays were performed with ligands at concentrations of 40 µM, i.e., half of the concentration usually used (80 µM) in these assays. […]. […] So, it appears that introduction of a chloro substituent in TAC and/or a hydroxyl group in the carbon linker are not well suited for the interaction with β-sheet secondary structure of Aβ aggregates. […].
Commercially available Aβ1-42 peptide was obtained from Aldrich and stored at −20 °C. It was treated with 1,1,1,3,3,3-hexafluoropropan-2-ol (HFIP) to avoid self-aggregation and reserved. HFIP pre-treated Aβ1–42 samples were re-dissolved in CH3CN/Na2CO3 (300 µM)/NaOH (250 µM) (48.3:48.3:4.3, v/v/v) solvent mixture in order to have a stable stock solution; this solution (500 µM) was further diluted in phosphate buffer (0.215 M, pH 8.0) to obtain 40 µM solution. The ligand, which was previously dissolved in methanol, was further diluted in phosphate buffer to a final concentration of 40 µM. Aβ1–42 aggregation was determined by measuring the fluorescence emission of Thioflavin T dye, with a Cary Eclipse Varian fluorimeter (Molecular Devices, San José, CA, USA).
After incubation for 24 h at 37 °C, without stirring, the samples were added to a 96-well plate (BD Falcon) with 180 µL of 5 µM ThT in 50 mM glycine-NaOH (pH 8.5) buffer. Blank samples were prepared for each concentration in a similar way, devoid of peptide. As for the control, a sample of the peptide was incubated under identical conditions but without the inhibitor. After 5-min incubation with the dye, the ThT fluorescence was measured at the following wavelengths: 446 nm (excitation) and 486 nm (emission). The percent inhibition of the self-induced aggregation due to the presence of the test compound was calculated by Equation (2), in which IFi and IF0 corresponded to the fluorescence intensities, in the presence and the absence of the test compound, minus the fluorescence intensities due to the respective blanks. I% = 100 − (IFi/IF0 × 100)(2)
The reported values were obtained as the mean ± S.E.M. of two different experiments.

[3] = test system: SH-SY5Y cells; assay: Dose-response screening for non-toxic concentration, MTT reduction; type: cell-based; settings: dose-response screening from 0.2 μM to 5 μM, 25 h
Description: The neuroprotective effect of TAC-PhBTA conjugates was evaluated using SH-SY5Y cells treated with Aβ1–42 peptides or ascorbate/iron. For each compound, a dose-response curve was performed to select a non-toxic concentration in order to analyze its neuroprotective effect (Figure 3).
SH-SY5Y human neuroblastoma cell line (ATCC-CRL-2266) grown in Dulbecco’s modified Eagle’s medium (DMEM) obtained from Gibco-Invitrogen (Life Technologies Ltd., Liverpool, UK) with 10% heat inactivated fetal calf serum, containing 50 U/mL penicillin, and 50 μg/mL streptomycin, under a humidified atmosphere of 95% air-5% CO2 at 37 °C. Cells were plated at 0.12 × 10^6 cells/mL for cell viability assay. […]. As a result we selected a 2.5 μM final concentration for compound 16; 0.5 μM final concentration for compound 17; 0.2 μM final concentration for compounds 14 and 15; and a 1 μM final concentration for compounds 19 and 18. […] The compounds were added to the cell media 1 h before the incubation with Aβ1–42 or ferrous sulfate/L-ascorbic acid. Aβ1–42 or ferrous sulfate/L-ascorbic acid where incubated alone or with the compound for an additional 24 h. Aβ1–42 was prepared as 276.9 μM stock in sterile water and added to the medium at 1 μM final concentration. Ferrous sulfate was freshly prepared as 0.36 M stock in water and added to the medium at 500 μM final concentration. L-Ascorbic Acid was freshly prepared as 80 mM stock in water and added to the medium at 5 mM final concentration. Aβ1–42 was purchased from Bachem (Torrance, CA, USA) and ferrous sulfate and L-ascorbic acid from Sigma Chemical Co (St. Louis, MO, USA).
Cell viability was determined by a MTT (3-(4,5-dimethylthiazol-2-yl)-2,5-diphenyltetrazolium bromide) reduction test. In viable cells, the enzyme succinate dehydrogenase metabolizes MTT into formazan that absorbs light at 570 nm. Following the cell treatment protocol the medium was aspirated and 0.5 mL MTT (0.5 mg/mL) was added to each well. The plate was then incubated at 37 °C for 1 h 30 min protected from light. At the end of the incubation period the formazan precipitates were solubilized with 0.5 mL of acidic isopropanol (0.04 M HCl/isopropanol). The absorbance was measured at 570 nm. Cell reduction ability was expressed as a percentage of untreated control cells.

[4] = self-mediated Aβ42 aggregation, ThT fluorescence, CL = 40 μM, means of two experiments

T1 sequence (O42275 24-633): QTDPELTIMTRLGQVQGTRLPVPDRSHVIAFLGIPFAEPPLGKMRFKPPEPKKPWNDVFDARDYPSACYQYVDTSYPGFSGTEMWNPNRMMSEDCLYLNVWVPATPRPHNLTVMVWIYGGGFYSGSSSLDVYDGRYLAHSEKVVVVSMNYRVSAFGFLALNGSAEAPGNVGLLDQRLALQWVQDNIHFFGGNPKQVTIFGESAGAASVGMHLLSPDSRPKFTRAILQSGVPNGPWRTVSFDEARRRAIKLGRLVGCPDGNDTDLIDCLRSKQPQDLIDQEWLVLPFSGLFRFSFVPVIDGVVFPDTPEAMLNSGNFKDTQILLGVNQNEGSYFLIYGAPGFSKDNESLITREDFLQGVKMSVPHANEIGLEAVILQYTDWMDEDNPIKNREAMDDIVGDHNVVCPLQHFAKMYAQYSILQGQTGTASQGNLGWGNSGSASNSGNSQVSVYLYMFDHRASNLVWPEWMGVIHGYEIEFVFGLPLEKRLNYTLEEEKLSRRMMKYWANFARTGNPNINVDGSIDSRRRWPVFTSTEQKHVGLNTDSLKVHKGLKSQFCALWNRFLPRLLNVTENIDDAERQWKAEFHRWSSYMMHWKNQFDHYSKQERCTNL
T2 sequence (P05067 672-713 limits assumed): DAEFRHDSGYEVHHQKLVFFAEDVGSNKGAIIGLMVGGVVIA

| Structure (SMILES) | pIC50 [1] | inhibition at 40 µM [2, 4] | Highest non-toxic concentration selected [3] | Inhibition of Aβ-self-aggregation (%) ([2]; self-mediated Aβ42 aggregation, ThT fluorescence, CL = 40 μM, means of two experiments, 40 µM) | inhibition at 80 µM ([2]; read-out: Inhibition of Aβ self-aggregation (%)) | inhibition at 40 µM [2] |
| --- | --- | --- | --- | --- | --- | --- |
| COc1cc(-c2nc3ccccc3s2)ccc1OCC(=O)NCCNc1c2c(nc3ccccc13)CCCC2 [compound 14, 2-(4-(Benzo[d]thiazol-2-yl)-2-methoxyphenoxy)-N-(2-((1,2,3,4-tetrahydroacridin-9-yl)amino)ethyl)acetamide] | 6.96 | 44.6% | 0.2 µM |  |  |  |
| COc1cc(-c2nc3ccccc3s2)ccc1OCC(=O)NCC(O)CNc1c2c(nc3ccccc13)CCCC2 (stereo not drawn) [compound 18, 2-(4-(Benzo[d]thiazol-2-yl)-2-methoxyphenoxy)-N-(2-hydroxy-3-((1,2,3,4-tetrahydroacridin-9-yl)amino)propyl)acetamide] | 6.57 | ~31% | 1 µM | 31.1% |  |  |
| COc1cc(-c2nc3ccccc3s2)ccc1OCC(=O)NCCCNc1c2c(nc3cc(Cl)ccc13)CCCC2 [compound 17, 2-(4-(Benzo[d]thiazol-2-yl)-2-methoxyphenoxy)-N-(3-((6-chloro-1,2,3,4-tetrahydroacridin-9-yl)amino)propyl)acetamide] | 6.89 | 32.5% | 0.5 µM |  |  |  |
| Nc1c2c(nc3ccccc13)CCCC2 [TAC, tacrine] |  |  |  |  | 11% | 11% |
